Patent publication EP2439195B1, “NAPHTHALENE CARBOXAMIDE DERIVATIVES AS INHIBITORS OF PROTEIN KINASE AND HISTONE DEACETYLASE, PREPARATION METHODS AND USES THEREOF” (Shenzhen Chipscreen Biosciences, Ltd., priority 2009, dated 2010)

How the values were obtained:
Type in all cases: in vivo
human HCT-8 colon cancer [1] = assay: Nude mice tumor transplanted from human HCT-8 colon cancer (Example 52); settings: for Tumor weight: killed after 20 doses; for TGI (%): tumor growth inhibition
Protocol: Female nu/nu mice of 18∼20g were fed by normal diet for 3 days. Then the cultured HCT-8 human colon cancer cells were implanted into the armpit of 50 mice. […] Each group had 8 mice. One group was treated with vehicle. One group was treated with Sutent, the positive control drug. […] Each group was dosed orally once a day for 24 days. Tumor volumes along with body weights were recorded twice per week. On the next day after 20 doses, the mice were killed, and tumors were weighed. The tumor growth inhibition of each group was calculated using the following formula: {[([…])} × 100%. [formula] The experimental results are shown in Table 6 and Figure 2.

[2] = test system: SSMC7721 human liver cancer cells; assay: Nude mice tumor transplanted from human SSMC7721 liver cancer (Example 53); settings: for TGI (%): tumor growth inhibition
Protocol: Female nu/nu mice of 18∼20g were fed by normal diet for 3 days. Then the cultured SSMC7721 human liver cancer cells were implanted into the armpit of 50 mice. […] One group was treated with vehicle. One group was treated with Sutent, the positive control drug. […] Each group was dosed orally once a day for 24 days. […] The tumor growth inhibition of each group was calculated using the following formula: {[([…])} × 100%. [formula] The experimental results are shown in Table 7 and Figure 3.

human HCT-8 colon cancer [3] = assay: Nude mice tumor transplanted from human HCT-8 colon cancer (Example 54); settings: for TGI (%): tumor growth inhibition
Protocol: (§1) Female nu/nu mice of 18∼20g were fed by normal diet for 3 days. Then the cultured HCT-8 human colon cancer cells were implanted into the armpit of 50 mice. […] Each group had 8 mice. One group was treated with vehicle. One group was treated with Sutent, the positive control drug. Two groups were treated with compound 33 at different concentrations. The other two groups were treated with compound 34 at different concentrations. Each group was dosed orally once a day for 20 days. […] The tumor growth inhibition of each group was calculated using the following formula: {[(the average tumor weight of control group)-(the average tumor weight of test group)]/(the average tumor weight of control group)} × 100%. [formula] The experimental results are shown in Table 8 and Figure 4.

human HCT-8 colon cancer [4] = assay: Nude mice tumor transplanted from human HCT-8 colon cancer (Example 55); settings: 20 days; for TGI (%): tumor growth inhibition
Protocol: Female nu/nu mice of 18∼20g were fed by normal diet for 3 days. Then the cultured HCT-8 human colon cancer cells were implanted into the armpit of 50 mice. […] One group was treated with vehicle. One group was treated with Sutent, the positive control drug. Two groups were treated with compound 33 at different concentrations. The other two groups were treated with compound 37 at different concentrations. Compound 33 was administered twice a day with an interval of 6 hours. For other groups, administration was performed once a day. Each group was dosed orally for 20 days. […] The tumor growth inhibition of each group was calculated using the following formula: {[(the average tumor weight of control group)-(the average tumor weight of test group)]/(the average tumor weight of control group)} × 100%. [formula] The experimental results are shown in Table 9 and Figure 5.

[5] = test system: human SSMC7721 liver cancer; assay: Nude mice tumor transplanted from human SSMC7721 liver cancer (Example 56); settings: for TGI (%): tumor growth inhibition
Protocol: as §1, with “cultured SSMC7721” for “cultured HCT-8”, “human liver” for “human colon”, “compound 37” for “compound 34”, “for 30” for “for 20”, “Table 10” for “Table 8”, “Figure 6. Table10” for “Figure 4.”

[6] = 2.5 mg/kg orally once a day for 24 days
[7] = 5 mg/kg orally once a day for 24 days
[8] = 10 mg/kg orally once a day for 24 days
[9] = 20 mg/kg orally once a day for 24 days
[10] = 30 mg/kg orally once a day for 20 days
[11] = 60 mg/kg orally once a day for 20 days
[12] = 30x2 mg/kg orally twice a day with an interval of 6 hours
[13] = 60x2 mg/kg orally twice a day with an interval of 6 hours
[14] = 30 mg/kg orally once a day for 30 days
[15] = 60 mg/kg orally once a day for 30 days

For `COc1ccc2c(Oc3ccc4c(C(=O)Nc5ccccc5N)cccc4c3)ccnc2c1` [Compound 31, N-(2-aminophenyl)-6-(7-methoxyquinolin-4-yloxy)-1-naphthamide], the “Body weight (g) end” value (human HCT-8 colon cancer [1]; 2.5 mg/kg orally once a day) was 24.5 ± 1.1 g, the “Tumor weight” value (human HCT-8 colon cancer [1]; 2.5 mg/kg orally once a day) was 2.18 ± 1.28 g and the “Body weight (g) start” value (human HCT-8 colon cancer [1]; 2.5 mg/kg orally once a day) was 20.3 ± 0.8 g. For the same compound, the “TGI (%)” value (human HCT-8 colon cancer [1]; 2.5 mg/kg orally once a day) was 54.5%, the “Body weight (g) end” value (human HCT-8 colon cancer [1]; 5 mg/kg orally once a day) was 24.8 ± 1.5 g and the “Tumor weight” value (human HCT-8 colon cancer [1]; 5 mg/kg orally once a day) was 0.78 ± 0.25 g. The “Body weight (g) start” value (human HCT-8 colon cancer [1]; 5 mg/kg orally once a day) was 21.6 ± 1.4 g, the “TGI (%)” value (human HCT-8 colon cancer [1]; 5 mg/kg orally once a day) was 83.8% and the “Body weight (g) end” value (human HCT-8 colon cancer [1]; 10 mg/kg orally once a day) was 23.7 ± 0.8 g. For the same compound, the “Tumor weight” value (human HCT-8 colon cancer [1]; 10 mg/kg orally once a day) was 0.46 ± 0.15 g, the “Body weight (g) start” value (human HCT-8 colon cancer [1]; 10 mg/kg orally once a day) was 20.7 ± 1.1 g and the “TGI (%)” value (human HCT-8 colon cancer [1]; 10 mg/kg orally once a day) was 90.3%. The “Body weight (g) end” value (human HCT-8 colon cancer [1]; 20 mg/kg orally once a day) was 22.5 ± 1.6 g, the “Tumor weight” value (human HCT-8 colon cancer [1]; 20 mg/kg orally once a day) was 0.19 ± 0.06 g and the “Body weight (g) start” value (human HCT-8 colon cancer [1]; 20 mg/kg orally once a day) was 20.5 ± 1.3 g. For the same compound, the “TGI (%)” value (human HCT-8 colon cancer [1]; 20 mg/kg orally once a day) was 96.1%, the “Tumor weight” value [2, 6] was 1.63 ± 0.70 g and the “Body weight (g) end” value [2, 6] was 23.2 ± 2.1 g. The “Body weight (g) start” value [2, 6] was 20.1 ± 0.9 g, the “TGI (%)” value [2, 6] was 51.7% and the “Tumor weight” value [2, 7] was 1.16 ± 0.55 g. For the same compound, the “Body weight (g) end” value [2, 7] was 24.8 ± 1.5 g, the “Body weight (g) start” value [2, 7] was 20.8 ± 1.2 g and the “TGI (%)” value [2, 7] was 65.4%. The “Tumor weight” value [2, 8] was 0.70 ± 0.45 g, the “Body weight (g) end” value [2, 8] was 23.6 ± 1.5 g and the “Body weight (g) start” value [2, 8] was 20.4 ± 1.6 g. For the same compound, the “TGI (%)” value [2, 8] was 79.2%, the “Tumor weight” value [2, 9] was 0.53 ± 0.28 g and the “Body weight (g) end” value [2, 9] was 21.0 ± 2.2 g. The “Body weight (g) start” value [2, 9] was 20.2 ± 1.7 g and the “TGI (%)” value [2, 9] was 84.4%.

`COc1ccc2c(Oc3ccc4c(C(=O)NCc5ccc(C(=O)Nc6ccccc6N)cc5)cccc4c3)ccnc2c1` [Compound 33, N-(4-((2-aminophenyl)carbamoyl)benzyl)-6-(7-methoxyquinolin-4-yloxy)-1-naphthamide] was tested, and the “Tumor weight” value (human HCT-8 colon cancer [3]; [10]) was 2.31 ± 0.43 g, the “Body weight (g) end” value (human HCT-8 colon cancer [3]; [10]) was 21.1 ± 2.2 g and the “Body weight (g) start” value (human HCT-8 colon cancer [3]; [10]) was 19.0 ± 1.3 g. The “TGI (%)” value (human HCT-8 colon cancer [3]; [10]) was 43.3%, the “Tumor weight” value (human HCT-8 colon cancer [3]; [11]) was 1.98 ± 0.61 g and the “Body weight (g) end” value (human HCT-8 colon cancer [3]; [11]) was 21.4 ± 1.5 g. For the same compound, the “Body weight (g) start” value (human HCT-8 colon cancer [3]; [11]) was 19.4 ± 0.8 g, the “TGI (%)” value (human HCT-8 colon cancer [3]; [11]) was 51.5% and the “Tumor weight” value (human HCT-8 colon cancer [4]; [12]) was 0.73 ± 0.36 g. The “Body weight (g) end” value (human HCT-8 colon cancer [4]; [12]) was 22.6 ± 1.6 g, the “Body weight (g) start” value (human HCT-8 colon cancer [4]; [12]) was 21.1 ± 1.2 g and the “TGI (%)” value (human HCT-8 colon cancer [4]; [12]) was 88.1%. The “Tumor weight” value (human HCT-8 colon cancer [4]; [13]) was 0.45 ± 0.05 g, the “Body weight (g) end” value (human HCT-8 colon cancer [4]; [13]) was 19.0 ± 1.8 g and the “Body weight (g) start” value (human HCT-8 colon cancer [4]; [13]) was 20.1 ± 0.9 g. The “TGI (%)” value (human HCT-8 colon cancer [4]; [13]) was 92.6%, the “Tumor weight” value [5, 14] was 1.63 ± 0.47 g and the “Body weight (g) end” value [5, 14] was 24.0 ± 1.7 g. The “Body weight (g) start” value [5, 14] was 20.8 ± 0.5 g, the “TGI (%)” value [5, 14] was 27.8% and the “Tumor weight” value [5, 15] was 1.48 ± 0.89 g. The “Body weight (g) end” value [5, 15] was 25.4 ± 2.8 g, the “Body weight (g) start” value [5, 15] was 21.4 ± 1.3 g and the “TGI (%)” value [5, 15] was 34.4%.
